Laboratory results from patent US20260256728A1, “TREATMENT FOR ASYMPTOMATIC STARGARDT DISEASE PATIENTS” (priority 2024, published 2026).

Test: TEASE-3 safety
Format: in vivo, human
Conditions: three patients, 14 mg daily
Description: The tolerability and effects of ALK-001 (gildeuretinol acetate) in Stargardt Disease (Clinical trial group 3, also known as TEASE-3) study was an open-label, multicenter, case control study designed to evaluate the efficacy and safety of gildeuretinol acetate on the progression of Stargardt disease in asymptomatic individuals. The trial was conducted at multiple sites in the United States. Patients received gildeuretinol acetate 14 mg capsules, to be taken orally once daily. Trial visits occurred every 6 months approximately following screening and treatment start visits. Ocular safety was assessed by retinal imaging and ocular exam, which included evaluation of the anterior and posterior segments and the lens. Systemic safety was assessed by physical exam, comprehensive clinical labs (biochemistry, hematology, lipids), and 12-lead ECG.

In the case of `[2H]C([2H])([2H])C(/C=C/C=C(C)/C=C/C1=C(C)CCCC1(C)C)=C\COC(C)=O` [gildeuretinol acetate], the “adverse reactions linked to excessive or insufficient vitamin A (delays in dark adaptation, night blindness)” value is reported as “None of the three Stargardt disease asymptomatic patients exhibited adverse reactions”.
